Results published in patent US9133148B2, “Carbamate compounds and of making and using same” (Abide Therapeutics, Inc., priority 2012, dated 2015).

Key:
Type in all cases: biochemical
[1] = target: ABHD6 (Mus musculus (Mouse), UniProt Q8R2Y0); assay: Competitive ABPP, % inhibition at 1 uM, ABHD6
Method: (§1) In Vitro Competitive Activity-Based Protein Profiling.
(§2) Proteomes (mouse brain membrane fraction or cell lysates) ([…], 1.0 mg/mL total protein concentration) were preincubated with varying concentrations of inhibitors at 37° C. After 30 min, FP-Rh (1.0 μL, 50 μM in DMSO) was added and the mixture was incubated for another 30 min at 37° C. Reactions were quenched with SDS loading buffer (50 μL—4×) and run on SDS-PAGE.

[2] = target: FAAH (Mus musculus (Mouse), UniProt O08914); assay: Competitive ABPP, % inhibition at 1 uM, FAAH
Sequence of FAAH (O08914 whole entry): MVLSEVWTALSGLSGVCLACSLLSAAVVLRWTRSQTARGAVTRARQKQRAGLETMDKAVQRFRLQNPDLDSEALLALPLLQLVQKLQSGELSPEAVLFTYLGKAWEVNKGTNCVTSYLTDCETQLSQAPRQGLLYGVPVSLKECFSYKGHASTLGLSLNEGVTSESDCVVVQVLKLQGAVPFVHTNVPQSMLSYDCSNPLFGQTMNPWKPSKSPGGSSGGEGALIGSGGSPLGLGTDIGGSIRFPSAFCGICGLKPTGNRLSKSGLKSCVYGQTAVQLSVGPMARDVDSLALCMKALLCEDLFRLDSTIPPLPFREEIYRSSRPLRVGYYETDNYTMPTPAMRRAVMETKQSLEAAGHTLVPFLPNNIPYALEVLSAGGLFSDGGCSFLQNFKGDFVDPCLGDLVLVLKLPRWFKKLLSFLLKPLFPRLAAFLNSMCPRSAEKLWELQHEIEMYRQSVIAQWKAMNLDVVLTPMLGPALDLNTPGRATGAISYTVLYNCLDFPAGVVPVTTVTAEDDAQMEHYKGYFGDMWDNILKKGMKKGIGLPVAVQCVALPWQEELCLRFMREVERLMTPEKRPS
Method: as §1
as §2, with “SDS-PAGE. Following gel imaging, serine hydrolase activity was determined by measuring fluorescent intensity of gel bands corresponding to MAGL, ABHD6 and FAAH using ImageJ 1.43u software.” for “SDS-PAGE.”

[3] = target: MAGL (Mus musculus (Mouse), UniProt O35678); assay: Competitive ABPP, % inhibition at 1 uM, MAGL
Sequence of MAGL (O35678 whole entry): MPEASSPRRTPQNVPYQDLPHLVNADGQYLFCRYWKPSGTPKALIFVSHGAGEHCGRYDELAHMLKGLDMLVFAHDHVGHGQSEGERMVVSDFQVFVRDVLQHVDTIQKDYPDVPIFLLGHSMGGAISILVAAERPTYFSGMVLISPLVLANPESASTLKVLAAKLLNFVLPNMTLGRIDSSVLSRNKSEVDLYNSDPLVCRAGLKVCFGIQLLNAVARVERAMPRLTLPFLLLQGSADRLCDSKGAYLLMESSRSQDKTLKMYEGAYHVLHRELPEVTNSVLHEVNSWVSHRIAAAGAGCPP
Method: as §1, §2

Sequence of ABHD6 (Q8R2Y0 whole entry): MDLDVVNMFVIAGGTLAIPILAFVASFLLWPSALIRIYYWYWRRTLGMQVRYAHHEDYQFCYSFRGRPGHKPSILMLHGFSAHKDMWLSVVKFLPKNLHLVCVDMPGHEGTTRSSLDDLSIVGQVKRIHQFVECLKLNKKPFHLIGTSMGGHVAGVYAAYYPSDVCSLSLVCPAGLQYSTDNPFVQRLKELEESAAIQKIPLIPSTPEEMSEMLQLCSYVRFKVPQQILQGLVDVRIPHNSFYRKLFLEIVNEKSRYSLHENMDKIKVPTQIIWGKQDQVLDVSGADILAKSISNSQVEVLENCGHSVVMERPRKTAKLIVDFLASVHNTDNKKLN

| Structure (SMILES) | inhibition at 1 µM [1] [%] | inhibition at 1 µM [2] [%] | inhibition at 1 µM [3] [%] |
| --- | --- | --- | --- |
| C[C@@H]1CN(Cc2ccc(N3CCOCC3)cc2F)CCN1C(=O)OC(C(F)(F)F)C(F)(F)F [Example 9k, 1,1,1,3,3,3-hexafluoropropan-2-yl(2R)-4-[[2-fluoro-4-(morpholin-4-yl)phenyl]methyl]-2-methylpiperazine-1-carboxylate] | < 25 | < 25 | < 25 |
| C[C@@H]1CN(Cc2ccc(N3CCOCC3)cc2C(F)(F)F)CCN1C(=O)OC(C(F)(F)F)C(F)(F)F [Example 9l, 1,1,1,3,3,3-hexafluoropropan-2-yl(2R)-2-methyl-4-[[4-(morpholin-4-yl)-2-(trifluoromethyl)phenyl]methyl]piperazine-1-carboxylate] | < 25 | < 25 | < 25 |
| O=C(OC(C(F)(F)F)C(F)(F)F)N1CCN(Cc2c(Cl)cccc2N2CCCC2)CC1 [Example 9m, 1,1,1,3,3,3-hexafluoropropan-2-yl 4-[[2-chloro-6-(pyrrolidin-1-yl)phenyl]methyl]piperazine-1-carboxylate] | 25 to 75 | < 25 | 25 to 75 |
| COc1ccc(-c2cc(CN3CCN(C(=O)OC(C(F)(F)F)C(F)(F)F)CC3)no2)cc1 [Example 10a, 1,1,1,3,3,3-hexafluoropropan-2-yl 4-((5-(4-methoxyphenyl)isoxazol-3-yl)methyl)piperazine-1-carboxylate] | 25 to 75 | < 25 | > 75 |
| CC1CN(C(=O)OC(C(F)(F)F)C(F)(F)F)CCN1Cc1ccc(-c2ccccc2)cc1 (stereo not drawn) [Example 11a, 1,1,1,3,3,3-hexafluoropropan-2-yl 3-methyl-4-[(4-phenylphenyl)methyl]piperazine-1-carboxylate] | 25 to 75 | < 25 | 25 to 75 |
| Cc1cc(-c2ccc(CN3CCN(C(=O)OC(C(F)(F)F)C(F)(F)F)CC3)c(F)c2)cc(C)n1 [Example 11aa, 1,1,1,3,3,3-hexafluoropropan-2-yl 4-[[4-(2,6-dimethylpyridin-4-yl)-2-fluorophenyl]methyl]piperazine-1-carboxylate] | 25 to 75 | < 25 | > 75 |
| Cc1cnccc1-c1ccc(CN2CCN(C(=O)OC(C(F)(F)F)C(F)(F)F)CC2)c(F)c1 [Example 11ab, 1,1,1,3,3,3-hexafluoropropan-2-yl 4-[[2-fluoro-4-(3-methylpyridin-4-yl)phenyl]methyl]piperazine-1-carboxylate] | 25 to 75 | < 25 | > 75 |
| Cc1cccc(-c2ccc(CN3CCN(C(=O)OC(C(F)(F)F)C(F)(F)F)CC3)c(F)c2)n1 [Example 11ac, 1,1,1,3,3,3-hexafluoropropan-2-yl 4-[[2-fluoro-4-(6-methylpyridin-2-yl)phenyl]methyl]piperazine-1-carboxylate] | 25 to 75 | < 25 | > 75 |
| Cc1cccc(-c2ccc(CN3CCN(C(=O)OC(C(F)(F)F)C(F)(F)F)CC3)nc2C)c1 [Example 11ad, 1,1,1,3,3,3-hexafluoropropan-2-yl 4-[[6-methyl-5-(3-methylphenyl)pyridin-2-yl]methyl]piperazine-1-carboxylate] | 25 to 75 | < 25 | > 75 |
| Cc1ccccc1-c1ccc(CN2CCN(C(=O)OC(C(F)(F)F)C(F)(F)F)CC2)c(C)n1 [Example 11b, 1,1,1,3,3,3-hexafluoropropan-2-yl 4-[[2-methyl-6-(2-methylphenyl)pyridin-3-yl]methyl]piperazine-1-carboxylate] | 25 to 75 | < 25 | > 75 |
| Cc1nc(-c2ccccc2F)ccc1CN1CCN(C(=O)OC(C(F)(F)F)C(F)(F)F)CC1 [Example 11c, 1,1,1,3,3,3-hexafluoropropan-2-yl 4-[[6-(2-fluorophenyl)-2-methylpyridin-3-yl]methyl]piperazine-1-carboxylate] | 25 to 75 | < 25 | 25 to 75 |
| Cc1cccc(-c2ccc(CN3CCN(C(=O)OC(C(F)(F)F)C(F)(F)F)CC3)c(C)n2)c1 [Example 11d, 1,1,1,3,3,3-hexafluoropropan-2-yl 4-[[2-methyl-6-(3-methylphenyl)pyridin-3-yl]methyl]piperazine-1-carboxylate] | 25 to 75 | < 25 | > 75 |
| Cc1nc(-c2cccc(F)c2)ccc1CN1CCN(C(=O)OC(C(F)(F)F)C(F)(F)F)CC1 [Example 11e, 1,1,1,3,3,3-hexafluoropropan-2-yl 4-[[6-(3-fluorophenyl)-2-methylpyridin-3-yl]methyl]piperazine-1-carboxylate] | 25 to 75 | < 25 | > 75 |

Other lines, results leading:

| inhibition at 1 µM [1] [%] | inhibition at 1 µM [2] [%] | inhibition at 1 µM [3] [%] | Structure (SMILES) |
| --- | --- | --- | --- |
| > 75 | < 25 | > 75 | Cc1cc(-c2ccc(CN3CCN(C(=O)OC(C(F)(F)F)C(F)(F)F)CC3)c(F)c2)ccn1 [Example 11g, 1,1,1,3,3,3-hexafluoropropan-2-yl 4-[[2-fluoro-4-(2-methylpyridin-4-yl)phenyl]methyl]piperazine-1-carboxylate] |
| < 25 | < 25 | 25 to 75 | Cc1cccc(-c2ccc(CN3CCN(C(=O)OC(C(F)(F)F)C(F)(F)F)CC3)c(C)c2)c1 [Example 11h, 1,1,1,3,3,3-hexafluoropropan-2-yl 4-[[2-methyl-4-(3-methylphenyl)phenyl]methyl]piperazine-1-carboxylate] |
| 25 to 75 | < 25 | 25 to 75 | Cc1cc(-c2ccc(CN3CCN(C(=O)OC(C(F)(F)F)C(F)(F)F)CC3)c(C)c2)ccn1 [Example 11i, 1,1,1,3,3,3-hexafluoropropan-2-yl 4-[[2-methyl-4-(2-methylpyridin-4-yl)phenyl]methyl]piperazine-1-carboxylate] |
| 25 to 75 | < 25 | > 75 | O=C(OC(C(F)(F)F)C(F)(F)F)N1CCN(Cc2ccc(-c3cccc(F)c3)cn2)CC1 [Example 11k, 1,1,1,3,3,3-hexafluoropropan-2-yl 4-[[5-(3-fluorophenyl)pyridin-2-yl]methyl]piperazine-1-carboxylate] |
| > 75 | < 25 | > 75 | Cc1cc(-c2cccnc2)ccc1CN1CCN(C(=O)OC(C(F)(F)F)C(F)(F)F)CC1 [Example 11l, 1,1,1,3,3,3-hexafluoropropan-2-yl 4-[[2-methyl-4-(pyridin-3-yl)phenyl]methyl]piperazine-1-carboxylate] |
| 25 to 75 | < 25 | 25 to 75 | Cc1cc(-c2ccc(CN3CCN(C(=O)OC(C(F)(F)F)C(F)(F)F)CC3)c(C)c2)cc(C)n1 [Example 11m, 1,1,1,3,3,3-hexafluoropropan-2-yl 4-[[4-(2,6-dimethylpyridin-4-yl)-2-methylphenyl]methyl]piperazine-1-carboxylate] |
| > 75 | < 25 | > 75 | Cc1cc(-c2ccncc2C)ccc1CN1CCN(C(=O)OC(C(F)(F)F)C(F)(F)F)CC1 [Example 11n, 1,1,1,3,3,3-hexafluoropropan-2-yl 4-[[2-methyl-4-(3-methylpyridin-4-yl)phenyl]methyl]piperazine-1-carboxylate] |
| 25 to 75 | < 25 | > 75 | O=C(OC(C(F)(F)F)C(F)(F)F)N1CCN(Cc2ccc(-c3cccc(F)c3)cc2F)CC1 [Example 11o, 1,1,1,3,3,3-hexafluoropropan-2-yl 4-[[2-fluoro-4-(3-fluorophenyl)phenyl]methyl]piperazine-1-carboxylate] |
| < 25 | < 25 | 25 to 75 | Cc1cccc(-c2ccc(CN3CCN(C(=O)OC(C(F)(F)F)C(F)(F)F)CC3)c(Oc3ccccc3)c2)c1 [Example 11r, 1,1,1,3,3,3-hexafluoropropan-2-yl 4-[[4-(3-methylphenyl)-2-phenoxyphenyl]methyl]piperazine-1-carboxylate] |
| 25 to 75 | < 25 | 25 to 75 | Cc1cc(-c2cccnc2C)ccc1CN1CCN(C(=O)OC(C(F)(F)F)C(F)(F)F)CC1 [Example 11s, 1,1,1,3,3,3-hexafluoropropan-2-yl 4-[[2-methyl-4-(2-methylpyridin-3-yl)phenyl]methyl]piperazine-1-carboxylate] |
| 25 to 75 | < 25 | > 75 | Cc1ncccc1-c1ccc(CN2CCN(C(=O)OC(C(F)(F)F)C(F)(F)F)CC2)c(F)c1 [Example 11t, 1,1,1,3,3,3-hexafluoropropan-2-yl 4-[[2-fluoro-4-(2-methylpyridin-3-yl)phenyl]methyl]piperazine-1-carboxylate] |
| 25 to 75 | < 25 | 25 to 75 | Cc1ccccc1-c1ccc(CN2CCN(C(=O)OC(C(F)(F)F)C(F)(F)F)CC2)nc1C [Example 11u, 1,1,1,3,3,3-hexafluoropropan-2-yl 4-[[6-methyl-5-(2-methylphenyl)pyridin-2-yl]methyl]piperazine-1-carboxylate] |
